Test results published in patent publication US4183940A, “Antimycotic imidazolyl-9,10-dihydro-anthracene derivatives” (Bayer Aktiengesellschaft, priority 1976, dated 1980).
In brackets after ≈: the same amount, converted by molar mass.

Columns and labels:
Candida = test: Antimycotic in vivo activity (oral) in candidosis of mice; parameters: key: +++++: very good action=≥90% of survivors on the 6th day after infection; ++++: good action=≥80% of survivors on the 6th day after infection; +++: action=≥60% of survivors on the 6th day after infection; ++: poor action=≥40% of survivors on the 6th day after infection; +: trace of action; n.a.: no action; details: mice SPF-CF1, i.v. infection with Candida, 100 mg/kg oral one hour before and seven hours after infection
Description: Mice of the type SPF-CF1 were infected intravenously with 1-2×10^6 logarithmically growing Candida cells, which were suspended in physiological sodium chloride solution. The animals were treated orally one hour before and seven hours after the infection with, in each case, 100 mg/kg of body weight of the formulations.
Untreated animals died from the infection 2 to 6 days after infection. The survival rate on the 6th day after infection was about 5% in the case of the untreated control animals.

[1] = tested on: Trichophyton mentagrophytes; test: Antimycotic in vitro activity (series dilution test), Trichophyton mentagrophytes; type: cell-based; details: Sabouraud's milieu d'epreuve, 28° C., 24 to 96 hours; for MIC: Trichophyton mentagrophytes, read-out: MIC values in γ/ml of nutrient medium for Trichophyton mentagrophytes
Description: (§1) The invitro tests were carried out in a series dilution test with germ inocula of an average of 5×10^4 germs/ml of substrate. The nutrient medium was (a) for dermatophytes and moulds: Sabouraud's milieu d 'epreuve and (b) for yeasts: meat extract/glucose broth. The incubation temperature was 28° C. and the duration of incubation was 24 to 96 hours.

Candida albicans = test: Antimycotic in vitro activity (series dilution test), Candida albicans; type: cell-based; details: meat extract/glucose broth, 28° C., 24 to 96 hours; for MIC: Candida albicans, read-out: MIC values in γ/ml of nutrient medium for Candida albicans
Description: as §1

Penicillium commune = test: Antimycotic in vitro activity (series dilution test), Penicillium commune; type: cell-based; details: Sabouraud's milieu d'epreuve, 28° C., 24 to 96 hours; for MIC: Penicillium commune, read-out: MIC values in γ/ml of nutrient medium for Penicillium commune
Description: as §1

Aspergillus species = test: Antimycotic in vitro activity (series dilution test), Aspergillus species; type: cell-based; details: Sabouraud's milieu d'epreuve, 28° C., 24 to 96 hours; for MIC: Aspergillus, read-out: MIC values in γ/ml of nutrient medium for Aspergillus species
Description: as §1

Microsporon felineum = test: Antimycotic in vitro activity (series dilution test), Microsporon felineum; type: cell-based; details: Sabouraud's milieu d'epreuve, 28° C., 24 to 96 hours; for MIC: read-out: MIC values in γ/ml of nutrient medium for Microsporon felineum
Description: as §1

MIC [1]	MIC (Candida albicans)	MIC (Penicillium commune)	MIC (Aspergillus species)	MIC (Microsporon felineum)	SMILES	Action (survivors on the 6th day after infection) (Candida)	MIC values in γ/ml of nutrient medium for Trichophyton mentagrophytes [1]	MIC values in γ/ml of nutrient medium for Candida albicans (Candida albicans)	MIC values in γ/ml of nutrient medium for Penicillium commune (Penicillium commune)	MIC values in γ/ml of nutrient medium for Aspergillus species (Aspergillus species)	MIC values in γ/ml of nutrient medium for Microsporon felineum (Microsporon felineum)
					O=C1c2ccccc2C(c2ccccc2)(n2ccnc2)c2ccccc21 [drawing 31]	+++ (action=≥60% of survivors on the 6th day after infection)					
< 4 µg/mL	100 µg/mL (≈ 282 µM)	> 100 µg/mL	> 100 µg/mL	20 µg/mL (≈ 56.4 µM)	CSc1ccc(C2(n3ccnc3)c3ccccc3-c3ccccc32)cc1 [reference compound]						
					O=C1c2ccccc2C(c2ccccc2)(n2ccnc2)c2ccccc21 [drawing 19]		< 1 µg/mL	8 µg/mL	8 µg/mL	32 µg/mL	< 1 µg/mL
					O=C1c2ccccc2C(c2ccccc2)(n2ccnc2)c2ccccc21 [drawing 21]		< 1 µg/mL	> 64 µg/mL	8 µg/mL	32 µg/mL	4 µg/mL
> 100 µg/mL	20 µg/mL (≈ 61.7 µM)	100 µg/mL (≈ 308 µM)		> 100 µg/mL	c1ccc(C2(n3ccnc3)c3ccccc3Oc3ccccc32)cc1 [reference compound]						
< 1 µg/mL	64 µg/mL (≈ 183 µM)		> 64 µg/mL	8 µg/mL (≈ 22.8 µM)	Cc1ccc(C2(n3ccnc3)c3ccccc3C(=O)c3ccccc32)cc1 [drawing 24]				64 µg/mL		
					Cc1ccc(C2(n3ccnc3)c3ccccc3C(=O)c3ccccc32)cc1 [drawing 25]		< 1 µg/mL	> 64 µg/mL	8 µg/mL	> 64 µg/mL	4 µg/mL
					Cc1ccccc1C1(n2ccnc2)c2ccccc2C(=O)c2ccccc21 [drawing 23]		< 1 µg/mL	32 µg/mL	4 µg/mL	> 64 µg/mL	1 µg/mL
					c1ccc(C2(n3ccnc3)c3ccccc3C(c3ccccc3)(n3ccnc3)c3ccccc32)cc1 (stereo not drawn) [drawing 32]	++ (poor action=≥40% of survivors on the 6th day after infection)					
10 µg/mL (≈ 26.1 µM)		> 100 µg/mL	> 100 µg/mL	40 µg/mL (≈ 105 µM)	CSc1ccc(C2(n3ccnc3)c3ccccc3CCc3ccccc32)cc1 [reference compound]						
					Cc1ccccc1C1(n2ccnc2)c2ccccc2C(=O)c2ccccc21 [drawing 35]	+					
					O=C1c2ccccc2C(c2ccccc2)(n2ccnc2)c2ccccc21 [drawing 20]		< 1 µg/mL	> 64 µg/mL	8 µg/mL	64 µg/mL	4 µg/mL
> 100 µg/mL	40 µg/mL (≈ 117 µM)	> 100 µg/mL		> 100 µg/mL	c1ccc(C2(n3ccnc3)c3ccccc3Sc3ccccc32)cc1 [reference compound]						

SMILES	MIC [1]	MIC (Candida albicans)	MIC (Penicillium commune)	MIC (Aspergillus species)	MIC (Microsporon felineum)	Action (survivors on the 6th day after infection) (Candida)	MIC values in γ/ml of nutrient medium for Trichophyton mentagrophytes [1]	MIC values in γ/ml of nutrient medium for Candida albicans (Candida albicans)	MIC values in γ/ml of nutrient medium for Penicillium commune (Penicillium commune)	MIC values in γ/ml of nutrient medium for Aspergillus species (Aspergillus species)	MIC values in γ/ml of nutrient medium for Microsporon felineum (Microsporon felineum)
c1ccc(C2(n3ccnc3)c3ccccc3C(c3ccccc3)(n3ccnc3)c3ccccc32)cc1 (stereo not drawn) [drawing 26]	32 µg/mL (≈ 68.9 µM)	4 µg/mL (≈ 8.61 µM)	> 64 µg/mL								
Cc1ccccc1C1(n2ccnc2)c2ccccc2C(=O)c2ccccc21 [drawing 22]	< 1 µg/mL	> 64 µg/mL		> 64 µg/mL	< 1 µg/mL				> 64 µg/mL		
O=C1c2ccccc2C(c2ccccc2)(n2ccnc2)c2ccccc21 [drawing 18]	< 1 µg/mL		4 µg/mL (≈ 11.9 µM)					4 µg/mL		4 µg/mL	8 µg/mL
